Measurements from patent US20220389019A1, “TrkB POSITIVE ALLOSTERIC MODULATORS” (Université de Strasbourg, priority 2019, published 2022).

Test system: TrkB
Assay: TrkB phosphorylation assay: potentiation of BDNF-induced TrkB phosphorylation in cortical neurons
Assay type: cell-based
Conditions: potentation at a PAM concentration of 10 nM of 0.4 nM BDNF-induced TrkB phosphorylation in cortical neurons
From the text: It is meant by “positive allosteric modulator” (PAM), also known as allosteric enhancer or potentiator, a compound that induces an amplification of the effect of receptor's response to the primary ligand without directly activating the receptor. Within this invention, PAM TrkB activity is related to the potentation of BDNF effects on the functional activity of the TrkB receptor, measured in vitro or in vivo by mean of a specific TrkB receptor phosphorylation assay.
In Vitro Activity of LIT-TB Derivatives in a TrkB Phosphorylation Assay

O=C(CCc1nnc2ccc(N3CCCCC3)nn12)NC1CCN(Cc2ccccc2)CC1 [LIT-TB002, N-(1-benzylpiperidin-4-yl)-3-[6-(piperidin-1-yl)-[1,2,4]triazolo[4,3-b]pyridazin-3-yl]propanamide]
PAM TrkB activity: ++ (++: 20-35%)

O=C(CCc1nnc2ccc(N3CCC(N4CCCCC4)CC3)nn12)NC1CCN(Cc2ccccc2)CC1 [LIT-TB003, 3-(6-([1,4′-bipiperidin]-1′-yl)-[1,2,4]triazolo[4,3-b]pyridazin-3-yl)-N-(1-benzylpiperidin-4-yl) propanamide]
PAM TrkB activity: ++ (++: 20-35%)

O=C(CCc1nnc2ccc(N3CCN(c4ncccn4)CC3)nn12)NC1CCN(Cc2ccccc2)CC1 [LIT-TB004, N-(1-benzylpiperidin-4-yl)-3-(6-(4-(pyrimidin-2-yl)piperazin-1-yl)-[1,2,4]triazolo[4,3-b]pyridazin-3-yl)propanamide]
PAM TrkB activity: + (+: <20%)

O=C(CCc1nnc2ccc(N3CCN(Cc4ccccc4)CC3)nn12)NC1CCN(Cc2ccccc2)CC1 [LIT-TB005]
PAM TrkB activity: +++ (+++: >35%)

CN1CCN(c2ccc3nnc(CCC(=O)NC4CCN(Cc5ccccc5)CC4)n3c2)CC1 [LIT-TB006, N-(1-benzylpiperidin-4-yl)-3-(6-(4-methylpiperazin-1-yl)-[1,2,4]triazolo[4,3-a]pyridin-3-yl)propanamide]
PAM TrkB activity: +++ (+++: >35%)

CN1CCN(c2ccc3ncc(CCC(=O)NC4CCN(Cc5ccccc5)CC4)n3c2)CC1 [LIT-TB013, N-(1-benzylpiperidin-4-yl)-3-(6-(4-methylpiperazin-1-yl)imidazo[1,2-a]pyridin-3-yl)propanamide]
PAM TrkB activity: +++ (+++: >35%)

CN1CCN(c2ccc3ncc(CCC(=O)NC4CCN(Cc5ccccc5)CC4)n3n2)CC1 [LIT-TB014, N-(1-benzylpiperidin-4-yl)-3-(6-(4-methylpiperazin-1-yl)imidazo[1,2-b]pyridazin-3-yl)propanamide]
PAM TrkB activity: ++ (++: 20-35%)

CN1CCN(c2ccc3nnc(CCCNC4CCN(Cc5ccccc5)CC4)n3n2)CC1 [LIT-TB015, 1-benzyl-N-(3-(6-(4-methylpiperazin-1-yl)-[1,2,4]triazolo[4,3-b]pyridazin-3-yl)propyl)piperidin-4-amine]
PAM TrkB activity: +++ (+++: >35%)

CN1CCC(NC(=O)CCc2nnc3ccc(N4CCN(C)CC4)nn23)CC1 [LIT-TB016, 3-[6-(4-methylpiperazin-1-yl)-[1,2,4]triazolo[4,3-b]pyridazin-3-yl]-N-(1-methyl-piperidin-4-yl)propanamide]
PAM TrkB activity: +++ (+++: >35%)

COc1ccc(CN2CCC(NC(=O)CCc3nnc4ccc(N5CCN(C)CC5)nn34)CC2)cc1 [LIT-TB017, N-{1-[(4-methoxyphenyl)methyl]piperidin-4-yl}-3-[6-(4-methylpiperazin-1-yl)-[1,2,4]triazolo [4,3-b]pyridazin-3-yl]propanamide]
PAM TrkB activity: +++ (+++: >35%)

CN1CCN(c2ccc3nnc(CCC(=O)NC4CCN(Cc5cccc(Cl)c5)CC4)n3n2)CC1 [LIT-TB018, N-{1-[(3-chlorophenyl)methyl]piperidin-4-yl}-3-[6-(4-methylpiperazin-1-yl)-[1,2,4]triazolo[4,3-b]pyridazin-3-yl]propanamide]
PAM TrkB activity: +++ (+++: >35%)

CN1CCN(c2ccc3nnc(CCC(=O)NC4CCN(Cc5ccccc5Cl)CC4)n3n2)CC1 [LIT-TB019, N-{1-[(2-chlorophenyl)methyl]piperidin-4-yl}-3-[6-(4-methylpiperazin-1-yl)-[1,2,4]triazolo[4,3-b]pyridazin-3-yl]propanamide]
PAM TrkB activity: +++ (+++: >35%)

CN1CCN(c2ccc3nnc(CCC(=O)NC4CCN(Cc5ccc(F)cc5)CC4)n3n2)CC1 [LIT-TB020, N-{1-[(4-fluorophenyl)methyl]piperidin-4-yl}-3-[6-(4-methylpiperazin-1-yl)-[1,2,4]triazolo[4,3-b]pyridazin-3-yl]propanamide]
PAM TrkB activity: +++ (+++: >35%)

CN1CCN(c2ccc3nnc(CCC(=O)NC4CCNCC4)n3n2)CC1 [LIT-TB021, 3-(6-(4-methylpiperazin-1-yl)-[1,2,4]triazolo[4,3-b]pyridazin-3-yl)-N-(piperidin-4-yl)propanamide]
PAM TrkB activity: + (+: <20%)

CN1CCN(c2ccc3nnc(CCC(=O)NC4CCN(Cc5ccccc5F)CC4)n3n2)CC1 [LIT-TB022, N-{1-[(2-fluorophenyl)methyl]piperidin-4-yl}-3-[6-(4-methylpiperazin-1-yl)-[1,2,4]triazolo[4,3-b]pyridazin-3-yl]propanamide]
PAM TrkB activity: +++ (+++: >35%)

CC(c1ccccc1)N1CCC(NC(=O)CCc2nnc3ccc(N4CCN(C)CC4)nn23)CC1 (stereo not shown) [LIT-TB023, 3-[6-(4-methylpiperazin-1-yl)-[1,2,4]triazolo[4,3-b]pyridazin-3-yl]-N-[1-(1-phenylethyl)piperidin-4-yl]propanamide]
PAM TrkB activity: + (+: <20%)

Cc1ccccc1CN1CCC(NC(=O)CCc2nnc3ccc(N4CCN(C)CC4)nn23)CC1 [LIT-TB024, N-{1-[(2-methylphenyl)methyl]piperidin-4-yl}-3-[6-(4-methylpiperazin-1-yl)-[1,2,4]triazolo[4,3-b]pyridazin-3-yl]propanamide]
PAM TrkB activity: +++ (+++: >35%)

CN1CCN(c2ccc3nnc(CCC(=O)NC4CCN(Cc5ccncc5)CC4)n3n2)CC1 [LIT-TB025, 3-[6-(4-methylpiperazin-1-yl)-[1,2,4]triazolo[4,3-b]pyridazin-3-yl]-N-[1-(pyridin-4-ylmethyl)piperidin-4-yl]propanamide]
PAM TrkB activity: + (+: <20%)

CN1CCN(c2ccc3nnc(CCC(=O)NC4CCN(Cc5ccc(Cl)c(Cl)c5)CC4)n3n2)CC1 [LIT-TB026, N-{1-[(3,4-dichlorophenyl)methyl]piperidin-4-yl}-3-[6-(4-methylpiperazin-1-yl)-[1,2,4]triazolo[4,3-b]pyridazin-3-yl]propanamide]
PAM TrkB activity: + (+: <20%)

CN1CCN(c2ccc3nnc(CCC(=O)NC4CCN(C(=O)c5ccccc5)CC4)n3n2)CC1.Cl [LIT-TB027, N-(1-benzoylpiperidin-4-yl)-3-[6-(4-methylpiperazin-1-yl)-[1,2,4]triazolo[4,3-b]pyridazin-3-yl]propanamide hydrochloride]
PAM TrkB activity: + (+: <20%)

CN1CCN(c2ccc3nnc(CCC(=O)NC4CCN(Cc5ccc(Cl)cc5)CC4)n3n2)CC1 [LIT-TB028, N-{1-[(4-chlorophenyl)methyl]piperidin-4-yl}-3-[6-(4-methylpiperazin-1-yl)-[1,2,4]triazolo[4,3-b]pyridazin-3-yl]propanamide]
PAM TrkB activity: + (+: <20%)

CN1CCN(c2ccc3nnc(CCC(=O)NC4CCN(CC5CCCCC5)CC4)n3n2)CC1 [LIT-TB031, N-[1-(cyclohexylmethyl)piperidin-4-yl]-3-[6-(4-methylpiperazin-1-yl)-[1,2,4]triazolo[4,3-b]pyridazin-3-yl]propanamide]
PAM TrkB activity: +++ (+++: >35%)

Cc1[nH]cnc1CN1CCC(NC(=O)CCc2nnc3ccc(N4CCN(C)CC4)nn23)CC1 [LIT-TB032, N-{1-[(5-methyl-1H-imidazol-4-yl)methyl]piperidin-4-yl}-3-[6-(4-methylpiperazin-1-yl)-[1,2,4]triazolo [4,3-b]pyridazin-3-yl]propanamide]
PAM TrkB activity: +++ (+++: >35%)

CN1CCN(c2ccc3nnc(CCC(=O)NC4CCN(Cc5ccccc5)C(=O)C4)n3n2)CC1 (stereo not shown) [LIT-TB033, N-(1-benzyl-2-oxopiperidin-4-yl)-3-[6-(4-methylpiperazin-1-yl)-[1,2,4]triazolo[4,3-b]pyridazin-3-yl]propanamide]
PAM TrkB activity: + (+: <20%)

CN1CCN(c2ccc3nnc(CCC(=O)NC4CCC(Cc5ccccc5)CC4)n3n2)CC1 (stereo not shown) [LIT-TB034, N-(4-benzylcyclohexyl)-3-[6-(4-methylpiperazin-1-yl)-[1,2,4]triazolo[4,3-b]pyridazin-3-yl]propanamide]
PAM TrkB activity: + (+: <20%)

CN1CCN(c2ccc3nnc(CCC(=O)NC4CCN(c5ccccc5)CC4)n3n2)CC1 [LIT-TB035, 3-[6-(4-methylpiperazin-1-yl)-[1,2,4]triazolo[4,3-b]pyridazin-3-yl]-N-(1-phenylpiperidin-4-yl)propanamide]
PAM TrkB activity: ++ (++: 20-35%)

CN1CCN(c2ccc3nnc(CCC(=O)NC4CCN(Cc5ccc(F)cc5F)CC4)n3n2)CC1 [LIT-TB040, N-{1-[(2,4-difluorophenyl)methyl]piperidin-4-yl}-3-[6-(4-methylpiperazin-1-yl)-[1,2,4]triazolo[4,3-b]pyridazin-3-yl]propanamide]
PAM TrkB activity: ++ (++: 20-35%)

Cc1cc(F)ccc1CN1CCC(NC(=O)CCc2nnc3ccc(N4CCN(C)CC4)nn23)CC1 [LIT-TB044, N-{1-[(4-fluoro-2-methylphenyl)methyl]piperidin-4-yl}-3-[6-(4-methylpiperazin-1-yl)-[1,2,4]triazolo[4,3-b]pyridazin-3-yl]propanamide]
PAM TrkB activity: ++ (++: 20-35%)

COc1ccc(CN2CCC(NC(=O)CCc3nnc4ccc(N5CCN(C)CC5)nn34)CC2)c(C)c1.Cl.Cl [LIT-TB045, N-{1-[(4-methoxy-2-methylphenyl)methyl]piperidin-4-yl}-3-[6-(4-methylpiperazin-1-yl)-[1,2,4]triazolo[4,3-b]pyridazin-3-yl]propanamide dihydrochloride]
PAM TrkB activity: +++ (+++: >35%)

COc1ccc(CN2CCC(NC(=O)CCc3nnc4ccc(N5CCN(C)CC5)nn34)CC2)c(F)c1.Cl.Cl [LIT-TB046, N-{1-[(2-fluoro-4-methoxyphenyl)methyl]piperidin-4-yl}-3-[6-(4-methylpiperazin-1-yl)-[1,2,4]triazolo[4,3-b]pyridazin-3-yl]propanamide dihydrochloride]
PAM TrkB activity: + (+: <20%)

CN1CCN(c2ccc3nnc(CCC(=O)N[C@@H]4CCN(Cc5ccccc5)C[C@@H]4F)n3n2)CC1 [LIT-TB047, N-[(3S,4R)-1-benzyl-3-fluoropiperidin-4-yl]-3-[6-(4-methylpiperazin-1-yl)-[1,2,4]triazolo[4,3-b]pyridazin-3-yl]propanamide]
PAM TrkB activity: ++ (++: 20-35%)
